# Assay results as given in patent publication US12310963B2, “Pyrazole derivatives and use thereof” (Tarapeutics Science Inc., priority 2019, dated 2025).
# What was measured:
# [1] = target: T1, BaF3-FL-BRAF-V600E (stably expressing BRAF-V600E kinase) (Homo sapiens, UniProt P15056, V600E); experiment: Growth of BaF3-FL-BRAF-V600E cells, Cell Titer-Glo, 72 h; type: cell-based, mouse
# T1 construct: human BCR-ABL (P210 or P210/T315I mutated), full-length BRAF-V600E; expressed in transfected cells; host or cells: mouse BaF3, retroviral MSCV-Puro
# T1 sequence (P15056 whole entry V600E): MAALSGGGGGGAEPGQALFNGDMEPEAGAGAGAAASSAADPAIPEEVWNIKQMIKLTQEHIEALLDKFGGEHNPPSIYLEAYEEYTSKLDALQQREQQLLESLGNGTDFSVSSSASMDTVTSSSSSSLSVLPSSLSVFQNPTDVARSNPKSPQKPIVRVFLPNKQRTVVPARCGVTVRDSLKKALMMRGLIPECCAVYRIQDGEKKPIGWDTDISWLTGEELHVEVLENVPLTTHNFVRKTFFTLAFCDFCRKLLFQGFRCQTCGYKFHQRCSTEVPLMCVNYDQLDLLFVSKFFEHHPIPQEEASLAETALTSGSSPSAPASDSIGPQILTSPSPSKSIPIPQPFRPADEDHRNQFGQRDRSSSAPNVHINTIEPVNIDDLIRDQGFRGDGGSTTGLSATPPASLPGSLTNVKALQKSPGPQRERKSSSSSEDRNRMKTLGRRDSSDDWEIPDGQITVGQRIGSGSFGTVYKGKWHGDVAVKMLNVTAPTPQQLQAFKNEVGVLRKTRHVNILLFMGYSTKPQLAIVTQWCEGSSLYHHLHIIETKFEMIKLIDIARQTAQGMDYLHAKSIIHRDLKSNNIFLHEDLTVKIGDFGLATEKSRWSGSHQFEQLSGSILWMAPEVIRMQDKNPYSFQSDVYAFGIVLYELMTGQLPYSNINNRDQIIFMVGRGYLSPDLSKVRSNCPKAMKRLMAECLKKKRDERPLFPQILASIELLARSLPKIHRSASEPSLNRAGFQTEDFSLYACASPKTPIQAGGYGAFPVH
# From the text: (§1) In this example, mouse primary B cell BaF3 (purchased from ATCC, U.S.A.) was used. In addition, in this example, mouse BaF3-tel-PDGFRα (stably expressing PDGFRα kinase), mouse BaF3-tel-PDGFRβ (stably expressing PDGFRβ kinase), BaF3-P210 (stably expressing ABL kinase), BaF3-P210-T315I (stably expressing ABL-T315I kinase), BaF3-FL-BRAF-V600E (stably expressing BRAF-V600E kinase), BaF3-TEL-cKIT (stably expressing cKIT kinase), BaF3-TEL-VEGFR2 (stably expressing VEGFR2 kinase), BaF3-TEL-FGFR2 (stably expressing FGFR2 kinase) were also used. The above-mentioned cell trains were all constructed in our laboratory by the method as follows. The sequences of human BCR-ABL (P210 or P210/T315I mutated), full-length BRAF-V600E, cKIT, VEGFR2, FGFR2, PDGFRα, PDGFRβ kinase region were amplified respectively via PCR, and inserted respectively into a MSCV-Puro vector (purchased from Clontech) having a N-terminal TEL fragment and/or NPM fragment and/or TPR fragment, and stably transferred into mouse BaF3 cells by the retroviral method, and the growth factor IL-3 was removed. Eventually, cell lines which are transferred into proteins depending on PDGFRα, PDGFRβ were obtained.
# In this example, solutions of the test compound at different concentrations (0.000508 μM, 0.00152 μM, 0.00457 μM, 0.0137 μM, 0.0411 μM, 0.123 μM, 0.370 μM, 1.11 μM, 3.33 μM, 10 μM) were added to the above cells. […]
# [2] = test system: BaF3; experiment: Growth of parental BaF3 cells, Cell Titer-Glo, 72 h; type: cell-based; details: Mus musculus
# From the text: as §1
# (§2) In this example, solutions of the test compound at different concentrations (0.000508 μM, 0.00152 μM, 0.00457 μM, 0.0137 μM, 0.0411 μM, 0.123 μM, 0.370 μM, 1.11 μM, 3.33 μM, 10 μM) were added to the above cells. The cells were incubated for 72 hours.
# [3] = test system: BaF3-tel-PDGFRβ (stably expressing PDGFRβ kinase); experiment: Growth of BaF3-tel-PDGFRβ cells, Cell Titer-Glo, 72 h; type: cell-based, mouse
# From the text: as §1, §2
# [4] = test system: pulmonary arterial hypertension (PAH); experiment: Rat model of pulmonary arterial hypertension (PAH), monocrotaline-induced; type: in vivo; details: for mPAP, difference as compared with the vehicle group: p<0.001
# Protocol: SCXK (SU) 2017-0001. These rats were fed with conventional pellet feeds (Jiangsu Xietong Bio. Co., Ltd.), and were raised in a clean animal room with 12h/12h light/dark cycle. The rats were fed with foods and drinking water on an ad libitum basis. The temperature was maintained at 20-26° C., and the relative humidity was 40-70%. 120 SD rats were divided into 24 cages with 5 rats per group. […] The animals were treated in strict accordance with animal ethics regulations throughout the experiment. According to the method described in “Pharmaceutical experimental animal models: Fabrication and application” and the Standard Operating Procedure for PAH Model Construction of Model Animal Center, rats were intraperitoneally injected with a solution of 1% monocrotaline (MCT, purchased from Sigma, U.S.A.) once at a dose of 35 mg/kg. On Day 7 after the first injection of MCT, MCT was injected again at a dose of 20 mg/kg. The rats in the normal control group were intraperitoneally injected with an equivalent amount of water as a blank solvent. The specific steps were as follows: After the rats in each of the cages were fasted for 8 hours, each of the rats was weighed and recorded for the basic body weight after fasting; based on the measured basic body weight for each of the rats, the amount of MCT required to be injected for each of the rats was calculated according to the modeling dose of 35 mg/kg; based on the amount of MCT required to be injected for each of the rats, the dose for injection of a 1% MCT solution was calculated; the rats were fixed in a holder and intraperitoneally injected with the 1% MCT solution at the calculated dose; the rats were returned to the cages for routine feeding after the injection. […] The blood gas analyzer was operated following the standard operation procedure. […] Each of the rats was administered by gavage once a day starting from the day of regrouping at Week 4. The rats in the negative control group were daily administered by gavage with an equal volume of methylcellulose as vehicle. The rats in each of the groups were administered by gavage for consecutive 4 weeks (i.e., 28 days). […] The rats were weighed after fasting overnight twice a week. The administration dosage was calculated based on the weighing results. […] After the rats were under anesthesia, the pulmonary arterial pressure and the right ventricular systolic pressure of rats were measured. […] The steps were as follows. A No. 3.5 umbilical vein catheter was connected to a system pressure transducer. A formulated solution of […] sodium (purchased from Sangon) was filled into the transducer and the catheter, and bubbles were discharged. The anesthetized rat was placed on a surgical anatomical plate that is adjustable in its temperature. The temperature of the plate was adjusted to be maintained at about 37° C. The rat was fixed in supine position. The neck skin was cut with scissors to the edge of the clavicle, followed by blunt dissection of subcutaneous tissues and muscles, exposing the right external jugular vein. The adipose tissue on the surface was removed with ophthalmic surgical scissors. The external jugular vein was ligated at the […] surgical thread, and a loose knot was made at the proximal end for reserve. The external jugular vein was gently lifted with ophthalmic tweezers and cut with ophthalmic scissors to make a “V” opening. The catheter was quickly inserted, and the loose knot at the proximal end was tightened slightly to prevent bleeding. […] The catheter was further inserted slowly forward, and entered into the pulmonary artery at about 5 cm. […] The blood was transferred into an anticoagulation tube, and loaded in a blood gas analyzer to determine the indexes of partial pressure of oxygen (pO2), partial pressure of carbon dioxide (pCO2) and blood oxygen saturation (SaO2) in the blood.
# [5] = 45 mg/kg by gavage, 28 days, P<0.001
# [6] = high-dose group (45 mg/kg), P<0.001
# [7] = medium-dose group (30 mg/kg), P<0.01
smiles,measurement,setting,value
"Cc1ccc(NC(=O)c2cccc(C(F)(F)F)n2)cc1-n1cc(-c2cncc(N3CCN(C)CC3)c2)cn1 [Compound 1, N-(4-methyl-3-(4-(5-(4-methylpiperazin-1-yl)pyridin-3-yl)-1H-pyrazol-1-yl)phenyl)-6-(trifluoromethyl)picolinamide]",GI50,"[1]; BaF3-FL-BRAF-V600E cells, 72 hours",4.7 µM
same,inhibitory effect against BRAF-V600E (in words),[1]; summary of Table 2,"no inhibitory effect, or a relatively weak inhibitory effect"
same,GI50,[2],4.08 µM
same,GI50,[3],0.43 µM
same,"mPAP, difference as compared with the vehicle group","[4]; 15 mg/kg by gavage, 28 days",extremely significantly different
same,"RVSP, difference as compared with the groups of imatinib and bosentan","[4]; 30 mg/kg by gavage, 28 days",no significant difference
same,"mPAP, difference as compared with the groups of bosentan and imatinib","[4]; 30 mg/kg by gavage, 28 days",no significant difference
same,"RVSP, difference as compared with the vehicle group","[4]; 30 mg/kg by gavage, 28 days, P<0.001",extremely significantly different
same,"mPAP, difference as compared with the vehicle group","[4]; 30 mg/kg by gavage, 28 days",extremely significantly different
same,"RVI, difference as compared with the groups of imatinib and bosentan","[4]; 45 mg/kg by gavage, 28 days",no significant difference
same,"RVSP, difference as compared with the groups of imatinib and bosentan","[4]; 45 mg/kg by gavage, 28 days",no significant difference
same,"mPAP, difference as compared with the groups of bosentan and imatinib","[4]; 45 mg/kg by gavage, 28 days",no significant difference
same,"RVI, difference as compared with the vehicle group",[4]; [5],extremely significantly different
same,"RVSP, difference as compared with the vehicle group",[4]; [5],extremely significantly different
same,"mPAP, difference as compared with the vehicle group","[4]; 45 mg/kg by gavage, 28 days",extremely significantly different
same,"partial pressure of carbon dioxide (pCO2), difference as compared with the vehicle group",[4]; [6],extremely significantly different
same,"partial pressure of oxygen (pO2), difference as compared with the vehicle group",[4]; [6],extremely significantly different
same,"blood oxygen saturation (SaO2), difference as compared with the vehicle group","[4]; high-dose group (45 mg/kg), p<0.05",significantly different
same,RVI decrease as compared with the negative control group,"[4]; high-dose group, 45 mg/kg by gavage, 28 days",29.6%
same,RVI decrease as compared with the negative control group,"[4]; low-dose group, 15 mg/kg by gavage, 28 days",5.5%
same,"partial pressure of carbon dioxide (pCO2), difference as compared with the vehicle group",[4]; [7],extremely significantly different
same,"partial pressure of oxygen (pO2), difference as compared with the vehicle group",[4]; [7],extremely significantly different
same,RVI decrease as compared with the negative control group,"[4]; medium-dose group, 30 mg/kg by gavage, 28 days",9.4%
